Experimental data as given in PubChem BioAssay (NCI).
Where “and” joins values, the source holds several entries; their conditions need not be identical. Equal entries are not always repeated.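 A five-concentration, 48-hour dose response in 96-well plates underlies each endpoint, interpolated linearly between surrounding concentrations. GI50 = concentration required for 50% inhibition of growth. TGI: total growth inhibition.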

Experiments:
Test in all cases: NCI anticancer screen, dose series, 48 h
SK-MEL-5 melanoma = system: SK-MEL-5 melanoma
SK-MEL-2 melanoma = system: SK-MEL-2 melanoma
NCI-H226 lung = system: NCI-H226 lung
HL-60(TB) leukemia = system: HL-60(TB) leukemia
SN12C renal = system: SN12C renal
NCI-H23 lung = system: NCI-H23 lung
SK-OV-3 ovarian = system: SK-OV-3 ovarian
UACC-62 melanoma = system: UACC-62 melanoma
IGROV1 ovarian = system: IGROV1 ovarian
SF-295 CNS = system: SF-295 CNS

O=c1c(-c2ccccc2)c[nH]c2cc([N+](=O)[O-])c(/C(Cl)=C/c3ccccc3)cc12
TGI (SK-MEL-5 melanoma): 25.8 µM | TGI (SK-MEL-2 melanoma): > 100 µM | TGI (NCI-H226 lung): 34 µM | TGI (HL-60(TB) leukemia): 31.6 µM | TGI (SN12C renal): 43.7 µM | TGI (NCI-H23 lung): > 44.5 µM | TGI (SK-OV-3 ovarian): > 100 µM | TGI (UACC-62 melanoma): 22.6 µM | TGI (IGROV1 ovarian): > 38.6 µM | TGI (SF-295 CNS): 26.5 µM

C[Si](C)(C)C#C[I+]c1ccccc1
TGI (SK-MEL-5 melanoma): > 100 µM | TGI (SK-MEL-2 melanoma): > 100 µM | TGI (NCI-H226 lung): > 100 µM | TGI (HL-60(TB) leukemia): 61.3 µM | TGI (SN12C renal): 64.7 µM | TGI (NCI-H23 lung): > 100 µM | TGI (SK-OV-3 ovarian): > 100 µM | TGI (UACC-62 melanoma): > 100 µM | TGI (IGROV1 ovarian): > 100 µM | TGI (SF-295 CNS): > 100 µM

COc1cc(-c2ccc(-c3ccc(C(=N)N)s3)s2)cc(OC)c1OC
GI50 (SK-MEL-5 melanoma): 1.52 µM | TGI (SK-MEL-5 melanoma): 2.88 µM | GI50 (HL-60(TB) leukemia): 2.7 µM | TGI (HL-60(TB) leukemia): 5.64 µM | GI50 (SN12C renal): 1.61 µM | TGI (SN12C renal): 3.17 µM | GI50 (NCI-H23 lung): 2.61 µM | TGI (NCI-H23 lung): 8.04 µM | GI50 (SK-OV-3 ovarian): 5.15 µM | TGI (SK-OV-3 ovarian): 18.8 µM | GI50 (UACC-62 melanoma): 1.7 µM | TGI (UACC-62 melanoma): 3.17 µM | GI50 (SF-295 CNS): 1.78 µM | TGI (SF-295 CNS): 3.39 µM

O=C(CCN1CCCC1)Nc1ccc2c(NCCCCc3ccccc3)c3ccccc3nc2c1
GI50 (SK-MEL-5 melanoma): 1.56 µM | TGI (SK-MEL-5 melanoma): 2.91 µM | GI50 (SK-MEL-2 melanoma): 1.76 µM | TGI (SK-MEL-2 melanoma): 3.34 µM | GI50 (NCI-H226 lung): 1.15 µM | TGI (NCI-H226 lung): 2.49 µM | GI50 (SN12C renal): 1.08 µM | TGI (SN12C renal): 2.39 µM | GI50 (NCI-H23 lung): 1.1 µM | TGI (NCI-H23 lung): 2.4 µM | GI50 (UACC-62 melanoma): 1.67 µM | TGI (UACC-62 melanoma): 3.12 µM | GI50 (SF-295 CNS): 1.5 µM | TGI (SF-295 CNS): 2.88 µM

Cc1c2cc[n+](C)cc2c(C)c2c1[nH]c1ccc(O)cc12
TGI (SK-MEL-5 melanoma): 58.8 µM | TGI (SK-MEL-2 melanoma): > 96.9 µM | TGI (NCI-H226 lung): 16.6 µM | TGI (HL-60(TB) leukemia): > 87.9 µM | TGI (SN12C renal): 15.5 µM | TGI (NCI-H23 lung): 63.4 µM | TGI (SK-OV-3 ovarian): > 100 µM | TGI (UACC-62 melanoma): 82.1 µM | TGI (IGROV1 ovarian): > 100 µM | TGI (SF-295 CNS): 64.7 µM

CCOC(=O)c1c(NC(=S)NCc2ccccc2)sc2c1CCN(C)C2
TGI (SK-MEL-5 melanoma): > 100 µM | TGI (SK-MEL-2 melanoma): > 100 µM | TGI (NCI-H226 lung): > 100 µM | TGI (HL-60(TB) leukemia): 36.2 µM | TGI (SN12C renal): > 100 µM | TGI (NCI-H23 lung): > 100 µM | TGI (UACC-62 melanoma): > 100 µM | TGI (IGROV1 ovarian): > 100 µM | TGI (SF-295 CNS): > 100 µM

Cc1c2cc[n+](C)cc2c(COC2OC(CO)C(O)C2O)c2c3ccccc3n(C)c12 (stereo not given)
TGI (SK-MEL-5 melanoma): > 100 µM | TGI (SK-MEL-2 melanoma): > 100 µM | TGI (NCI-H226 lung): > 94.1 µM | TGI (HL-60(TB) leukemia): > 100 µM | TGI (SN12C renal): 89.1 µM | TGI (NCI-H23 lung): > 100 µM | TGI (SK-OV-3 ovarian): 99.1 µM | TGI (UACC-62 melanoma): > 100 µM | TGI (IGROV1 ovarian): > 100 µM | TGI (SF-295 CNS): > 100 µM

COc1cc2c(cc1-c1c(C)noc1C)ncc1nc(C3CCCCC3)n(C3CCC(OC(F)F)CC3)c12 (stereo not given)
GI50 (HL-60(TB) leukemia): 1.26 µM | TGI (HL-60(TB) leukemia): 3.97 µM | GI50 (NCI-H23 lung): 2.49 µM | TGI (NCI-H23 lung): > 100 µM | GI50 (IGROV1 ovarian): 3.94 µM | TGI (IGROV1 ovarian): > 100 µM

NC(=O)c1cc2ccccc2c(N=Nc2ccccc2)c1O
TGI (SK-MEL-5 melanoma): > 100 µM | TGI (SK-MEL-2 melanoma): > 100 µM | TGI (NCI-H226 lung): > 100 µM | TGI (SN12C renal): > 100 µM | TGI (NCI-H23 lung): > 100 µM | TGI (SK-OV-3 ovarian): > 100 µM | TGI (UACC-62 melanoma): > 100 µM | TGI (IGROV1 ovarian): > 100 µM | TGI (SF-295 CNS): > 100 µM

CC(=O)OC1CC2(O)C(CCC3(C)C(c4ccc(=O)oc4)CCC32O)C2(C)CCC(O)C=C12 (stereo not given)
GI50 (SK-MEL-5 melanoma): 0.0375 µM | TGI (SK-MEL-5 melanoma): 0.046 µM and 0.04 µM | GI50 (SK-MEL-2 melanoma): 0.0375 µM | TGI (SK-MEL-2 melanoma): 0.0542 µM and 0.0976 µM | GI50 (NCI-H226 lung): 0.0808 µM | TGI (NCI-H226 lung): 0.184 µM and 0.183 µM | GI50 (HL-60(TB) leukemia): 0.0375 µM | TGI (HL-60(TB) leukemia): 0.0144 µM and 0.071 µM | GI50 (SN12C renal): 0.0375 µM | GI50 (NCI-H23 lung): 0.0375 µM | TGI (NCI-H23 lung): 0.0311 µM and 0.0704 µM | GI50 (SK-OV-3 ovarian): 0.0435 µM | TGI (SK-OV-3 ovarian): 0.104 µM and 0.117 µM | GI50 (UACC-62 melanoma): 0.0375 µM | TGI (UACC-62 melanoma): 0.0827 µM and 0.0478 µM | GI50 (IGROV1 ovarian): 0.0375 µM | TGI (IGROV1 ovarian): 0.351 µM and 0.242 µM | GI50 (SF-295 CNS): 0.0375 µM | TGI (SF-295 CNS): 0.0982 µM and 0.0635 µM

N#Cc1ccc(Nc2nc3nc[nH]c3c(=O)[nH]2)cc1
TGI (SK-MEL-5 melanoma): > 100 µM | TGI (SK-MEL-2 melanoma): > 100 µM | TGI (NCI-H226 lung): > 100 µM | TGI (HL-60(TB) leukemia): > 100 µM | TGI (SN12C renal): > 100 µM | TGI (NCI-H23 lung): > 100 µM | TGI (SK-OV-3 ovarian): > 100 µM | TGI (UACC-62 melanoma): > 100 µM | TGI (IGROV1 ovarian): > 100 µM | TGI (SF-295 CNS): > 100 µM

CC(=O)O[C@H]1C(=O)[C@]2(C)[C@@H](OC(=O)OCC(O)CO)C[C@H]3OC[C@@]3(OC(C)=O)[C@H]2[C@H](OC(=O)c2ccccc2)[C@]2(O)C[C@H](OC(=O)[C@H](O)[C@@H](NC(=O)c3ccccc3)c3ccccc3)C(C)=C1C2(C)C (stereo not given in full)
TGI (SK-MEL-5 melanoma): 19.6 µM | TGI (SN12C renal): > 100 µM | TGI (NCI-H23 lung): > 43.2 µM | TGI (SK-OV-3 ovarian): > 100 µM | TGI (UACC-62 melanoma): 21.2 µM | TGI (IGROV1 ovarian): > 57.7 µM

COc1cccc2c1C(=O)c1c(O)c3c(c(O)c1C2=O)C[C@@](O)(C(C)=O)C[C@@H]3OC1CC(N)C(O)C(C)O1 (stereo not given in full)
GI50 (SK-MEL-5 melanoma): < 0.018 µM | GI50 (SK-MEL-2 melanoma): 0.122 µM | GI50 (SN12C renal): < 0.0179 µM | GI50 (NCI-H23 lung): < 0.0235 µM | GI50 (SK-OV-3 ovarian): 0.0189 µM | GI50 (UACC-62 melanoma): < 0.0166 µM | GI50 (IGROV1 ovarian): < 0.0374 µM | GI50 (SF-295 CNS): < 0.0147 µM

CN1CCN(c2ccc3nc(-c4ccc(OCCCN5C(=O)c6cccc7cccc(c67)C5=O)cc4)[nH]c3c2)CC1
GI50 (SK-MEL-2 melanoma): 25.2 µM | TGI (SK-MEL-2 melanoma): 62.4 µM | GI50 (NCI-H226 lung): 19.8 µM | TGI (NCI-H226 lung): 51.2 µM | GI50 (HL-60(TB) leukemia): 3.13 µM | TGI (HL-60(TB) leukemia): 7.41 µM | GI50 (SN12C renal): 15.6 µM | TGI (SN12C renal): 34.8 µM | GI50 (NCI-H23 lung): 8.1 µM | TGI (NCI-H23 lung): 55.9 µM | GI50 (SK-OV-3 ovarian): 10.8 µM | TGI (SK-OV-3 ovarian): 37.5 µM | GI50 (UACC-62 melanoma): 5.18 µM | TGI (UACC-62 melanoma): 10.1 µM | GI50 (IGROV1 ovarian): 21.8 µM | TGI (IGROV1 ovarian): 66.1 µM | GI50 (SF-295 CNS): 14.5 µM | TGI (SF-295 CNS): 89.2 µM

CCP(=O)(CC)C(Cl)(Cl)C(=O)NC
TGI (SK-MEL-5 melanoma): > 100 µM | TGI (SK-MEL-2 melanoma): > 100 µM | TGI (NCI-H226 lung): > 100 µM | TGI (HL-60(TB) leukemia): > 100 µM | TGI (SN12C renal): > 100 µM | TGI (NCI-H23 lung): > 100 µM | TGI (SK-OV-3 ovarian): > 100 µM | TGI (IGROV1 ovarian): > 100 µM | TGI (SF-295 CNS): > 100 µM

CC(C)(C)CC(C)(C)Cc1ccc(OCCOCC[N+](C)(C)Cc2ccccc2)cc1
GI50 (SK-MEL-5 melanoma): 0.517 µM | TGI (SK-MEL-5 melanoma): 1.79 µM | GI50 (NCI-H226 lung): 1.79 µM | TGI (NCI-H226 lung): 6.72 µM | GI50 (HL-60(TB) leukemia): 0.365 µM | TGI (HL-60(TB) leukemia): 1.93 µM | GI50 (SN12C renal): 1.57 µM | TGI (SN12C renal): 3.04 µM | GI50 (NCI-H23 lung): 1.45 µM | TGI (NCI-H23 lung): 3.8 µM | GI50 (SK-OV-3 ovarian): 2.71 µM | TGI (SK-OV-3 ovarian): 12.4 µM | GI50 (UACC-62 melanoma): 1.26 µM | TGI (UACC-62 melanoma): 2.54 µM | GI50 (IGROV1 ovarian): 1.33 µM | TGI (IGROV1 ovarian): 2.86 µM | GI50 (SF-295 CNS): 3.62 µM | TGI (SF-295 CNS): 15.5 µM
